Residue numbers refer to the chain shown, from its start.
Legend:
[1] = biological target: T1, purified rabbit 20S proteasome (Oryctolagus cuniculus, UniProt G1T4Q9); experiment: Inhibition of chymotrypsin-like activity of purified 20S proteasome; format: biochemical; settings: purified 20S proteasome, concentration not stated
T1 sequence (G1T4Q9 60-263): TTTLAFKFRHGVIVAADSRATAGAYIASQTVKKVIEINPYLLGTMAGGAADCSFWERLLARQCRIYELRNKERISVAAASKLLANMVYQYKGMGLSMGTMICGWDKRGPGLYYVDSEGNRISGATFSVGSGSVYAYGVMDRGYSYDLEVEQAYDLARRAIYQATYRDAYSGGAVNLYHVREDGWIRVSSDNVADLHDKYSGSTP
Experimental: Purified 20S proteasome was incubated with compound 5, 7, 16, or 21 (A) or MDA-MB-231 cell extract (5.7 μg) was incubated with compound 6, 8, 17, or 22 (B) at indicated concentrations for 2 hours, followed by measuring the proteasomal chymotrypsin-like activity. EGCG was used as a comparative standard.
Purified rabbit 20S proteasome and fluorogenic substrate Suc-LLVY-AMC for the proteasomal chymotrypsin like (CT-like) activity were obtained from Calbiochem Inc. (San Diego, Calif.). Fetal bovine serum (FBS) was from Tissue Culture Biologicals (Tulare, Calif.). Penicillin and streptomycin were purchased from Invitrogen Co. (Carlsbad, Calif.). RPMI 1640 medium was purchased from Invitrogen Co. (Carlsbad, Calif.). MTT (3-4,5-dimethylthiazol-2-yl-2.5-diphenyl-tetrazolium bromide) was purchased from Sigma-Aldrich.
A purified rabbit 20S proteasome (35 ng) was incubated with 20 μM of substrate Suc-LLVY-AMC in 100 μl assay buffer (20 mM Tris-HCl, pH 7.5), in the presence of EGCG or EGCG analogs at different concentrations or the solvent for 2 h at 37° C., followed by measurement of hydrolysis of the fluorogenic substrates using a Wallac Victor3™ multi-label counter with 355-nm excitation and 460-nm emission wavelengths.

[2] = biological target: T2, proteasomal chymotrypsin-like activity of MDA-MB-231 cell extracts (Homo sapiens, UniProt P28074); experiment: Proteasomal chymotrypsin-like activity in MDA-MB-231 cell lysate with high COMT activity; format: biochemical; settings: 10 μM
T2 construct: endogenous in cells; host or cells: MDA-MB-231 human breast cancer cells (ATCC), cell extract
T2 sequence (P28074 60-263): T1 sequence (G1T4Q9 60-263) with D197E
Experimental: (A) MDA-MB-231 cell extracts (5.7 μg) were incubated with different concentrations of compound 5 or 7 or EGCG for 2 hours, followed by performance of proteasomal chymotrypsin-like activity assay. EGCG was used as a control. (B) MDA-MB-231 cell extracts (5.7 μg) were pre-treated with 10 μM DNC for 20 minutes, followed by co-incubation with compound 5, or 7 or EGCG for 2 h. The proteasomal chymotrypsin-like activity was measured.
Human breast cancer MDA-MB-231 cell lysate that contains high COMT activity were treated with varying concentrations of compound 5 or 7. […] Thus, consistent with previous reports EGCG is also susceptible to methylation by COMT (H., Lu, X. Meng, C. S. Yang, Drug Metabolism and Disposition; 31; 572, 2003).

[3] = test system: human multiple myeloma ARP cells; experiment: MTT assay in multiple myeloma ARP cells, alone or with Velcade; format: cell-based; settings: 20 μM plus varying doses of Velcade, 48 h
Experimental: The cells were treated with Velcade™ alone or with 20 μM of compounds 5, 7 and 23 or in combination with varying doses of Velcade™ for 48 hrs, followed by a MTT assay.
Human multiple myeloma cells (Arp and Opm1) cells, kindly provided by Dr. Ramesh Batchu (Wayne State University), were grown in RPMI-1640 medium supplemented with 10% FBS, 100 units/ml of penicillin, and 100 μg/ml of streptomycin. Cells were maintained at 37° C. in 5% CO2 (Mujtaba T, et al., Int J Mol Med. (2012) 29(1):102-6).
Cells were grown in a 96-well plate. Triplicate wells of cells were treated with indicated concentrations of EGCG or EGCG analogs for 24 h. After aspiration of medium, MTT (1 mg/ml) was then added to the cell cultures, followed by incubation for 3 h at 37° C. After cells were crystallized, MTT was removed and DMSO was added to dissolve the metabolized MTT product. The absorbance was then measured on a Wallac Victor3 1420 Multi-label counter at 540 nm.

Compound	proteasomal inhibition (in words) [1]	inhibition at 10 µM [2]	effect on cell proliferation when combined with Velcade [3]
O=C(O[C@@H]1Cc2c(O)cc(O)cc2O[C@@H]1c1cc(O)c(O)c(O)c1)c1cc(O)c(O)c(O)c1 [Compound 1, (−)-Epigallocatechin gallate, reference compound]	potently inhibited	~22%	–
O=C(O[C@H]1Cc2ccccc2C[C@H]1OC(=O)c1cc(O)c(Br)c(O)c1)c1cc(O)c(Br)c(O)c1 [Compound 23]	–	–	synergistic inhibitory effect

Reference: patent US20140378541A1, “Synthetic Epigallocatechin Gallate (EGCG) Analogs” (WAYNE STATE UNIVERSITY, priority 2011, published 2014)
